According to patent US20120122148A1, “Media For The Specific Detection Of Gram-Negative Bacteria Resistant To Beta-Lactam Antibiotics” (bioMerieux, SA, priority 2009, published 2012):

Assays:
Test in all cases: Growth and enzymatic activity on ChromID CPS-based selective media
Type in all cases: cell-based
Conditions in all cases: cefpodoxime 4 mg/l (T), cefepime 0.25 mg/l (A), cefamandole 3 mg/l (B), cefuroxime 3 mg/l (C), each with 300 mg/l cloxacillin
[1] = tested on: Proteus mirabilis 0105105 (HL case)
From the text: (§1) Choice of strains: The inventors selected strains which make it possible to evaluate the activity of antibiotics with respect to Gram-negative species: enterobacteria and nonfermenting bacilli. In particular, ESBL-producing strains, high-level cephalosporinase-producing strains (HL Case) and strains without a particular resistance profile, termed wild-type strains, were used.
(§2) Preparation of media: The media tested were media composed of the peptone base of the ChromID CPS medium (bioMérieux ref 43541) to which were added, after autoclaving, in molten media, 300 mg/l cloxacillin and, for medium T: 4 mg/l cefpodoxime, for medium A: 0.25 mg/L of cefepime, for medium B: 3 mg/l of cefamandole and for medium C: 3 mg/l of cefuroxime.
(§3) Inoculation of media: The media are inoculated by carrying out a 3-quadrant streaking method using bacterial suspensions at 0.5 McF. The media are then incubated for 24 hours at 37° C.
(§4) Reading of media: The media are observed visually after 18 h and 24 hours of incubation, the growth density and also the colorations and coloration strengths are evaluated according to the scale below: • − or 0: absence of growth or of expression of enzymatic acitivity (i.e. no coloration) • +: weak growth, or enzymatic activity • ++: very strong growth density or strong enzymatic acitivity (very strong coloration)

[2] = tested on: Proteus mirabilis 9709068 (ESBL)
From the text: as §1, §2, §3, §4

[3] = tested on: Serratia fonticola 8001047 (Wild-type)
From the text: as §1, §2, §3, §4

[4] = tested on: Enterobacter spp 0503037 (Wild-type)
From the text: as §1, §2, §3, §4

[5] = tested on: Morganella morganii 9904104 (HL case)
From the text: as §1, §2, §3, §4

[6] = tested on: Klebsiella oxytoca 0105100 (HL case)
From the text: as §1, §2, §3, §4

[7] = tested on: Proteus mirabilis 0105109 (HL case)
From the text: as §1, §2, §3, §4

[8] = tested on: Klebsiella oxytoca 0502094 (ESBL); set-up: key to the marks not given beside the values
From the text: as §1, §2, §3, §4

[9] = tested on: Enterobacter aerogenes 0502112 (ESBL); set-up: key to the marks not given beside the values
From the text: as §1, §2, §3, §4

[10] = tested on: Enterobacter spp 9306069 (HL case); set-up: key to the marks not given beside the values
From the text: as §1, §2, §3, §4

[11] = tested on: Escherichia coli 0411146 (ESBL); set-up: key to the marks not given beside the values
From the text: as §1, §2, §3, §4

[12] = tested on: Escherichia coli 0505101 (ESBL); set-up: Enz act.: key to the marks not given beside the values
From the text: as §1, §2, §3, §4

COCC1=C(C(=O)O)N2C(=O)[C@@H](NC(=O)/C(=N\OC)c3csc(N)n3)[C@H]2SC1 [Cefpodoxime, cefpodoxime]
Enz act. ([1]; 18 h at 37° C.): −
Growth ([1]; 18 h at 37° C.): −
Enz act. ([1]; 24 h at 37° C.): −
Growth ([1]; 24 h at 37° C.): −
Enz act. ([2]; 18 h at 37° C.): +
Growth ([2]; 18 h at 37° C.): +
Enz act. ([2]; 24 h at 37° C.): +
Growth ([2]; 24 h at 37° C.): +
Enz act. ([3]; 18 h at 37° C.): +
Growth ([3]; 18 h at 37° C.): +
Enz act. ([3]; 24 h at 37° C.): ++
Growth ([3]; 24 h at 37° C.): +
Enz act. ([4]; 18 h at 37° C.): ++
Growth ([4]; 18 h at 37° C.): ++
Enz act. ([4]; 24 h at 37° C.): ++
Growth ([4]; 24 h at 37° C.): ++
Enz act. ([5]; 18 h at 37° C.): −
Growth ([5]; 18 h at 37° C.): −
Enz act. ([5]; 24 h at 37° C.): −
Growth ([5]; 24 h at 37° C.): −
Enz act. ([6]; 18 h at 37° C.): ++
Growth ([6]; 18 h at 37° C.): ++
Enz act. ([6]; 24 h at 37° C.): ++
Growth ([6]; 24 h at 37° C.): ++
Enz act. ([7]; 18 h at 37° C.): −
Growth ([7]; 18 h at 37° C.): −
Enz act. ([7]; 24 h at 37° C.): −
Growth ([7]; 24 h at 37° C.): −
Enz act. ([8]; 18 h at 37° C.): ++
Growth ([8]; 18 h at 37° C.): ++
Enz act. ([8]; 24 h at 37° C.): ++
Growth ([8]; 24 h at 37° C.): ++
Enz act. ([9]; 18 h at 37° C.): ++
Growth ([9]; 18 h at 37° C.): ++
Enz act. ([9]; 24 h at 37° C.): ++
Growth ([9]; 24 h at 37° C.): ++
Enz act. ([10]; 18 h at 37° C.): ++
Growth ([10]; 18 h at 37° C.): ++
Enz act. ([10]; 24 h at 37° C.): ++
Growth ([10]; 24 h at 37° C.): ++
Enz act. ([11]; 18 h at 37° C.): ++
Growth ([11]; 18 h at 37° C.): ++
Enz act. ([11]; 24 h at 37° C.): ++
Growth ([11]; 24 h at 37° C.): ++
Enz act. ([12]; 18 h at 37° C.): ++
Growth ([12]; 18 h at 37° C.): +
Enz act. ([12]; 24 h at 37° C.): ++
Growth ([12]; 24 h at 37° C.): ++

CO/N=C(\C(=O)N[C@@H]1C(=O)N2C(C(=O)O)=C(COC(N)=O)CS[C@H]12)c1ccco1 [Cefuroxime, cefuroxime]
Enz act. ([1]; 18 h at 37° C.): −
Growth ([1]; 18 h at 37° C.): −
Enz act. ([1]; 24 h at 37° C.): −
Growth ([1]; 24 h at 37° C.): −
Enz act. ([2]; 18 h at 37° C.): +
Growth ([2]; 18 h at 37° C.): +
Enz act. ([2]; 24 h at 37° C.): ++
Growth ([2]; 24 h at 37° C.): +
Enz act. ([3]; 18 h at 37° C.): ++
Growth ([3]; 18 h at 37° C.): ++
Enz act. ([3]; 24 h at 37° C.): ++
Growth ([3]; 24 h at 37° C.): ++
Enz act. ([4]; 18 h at 37° C.): ++
Growth ([4]; 18 h at 37° C.): ++
Enz act. ([4]; 24 h at 37° C.): ++
Growth ([4]; 24 h at 37° C.): ++
Enz act. ([5]; 18 h at 37° C.): −
Growth ([5]; 18 h at 37° C.): −
Enz act. ([5]; 24 h at 37° C.): −
Growth ([5]; 24 h at 37° C.): −
Enz act. ([6]; 18 h at 37° C.): ++
Growth ([6]; 18 h at 37° C.): +
Enz act. ([6]; 24 h at 37° C.): ++
Growth ([6]; 24 h at 37° C.): ++
Enz act. ([7]; 18 h at 37° C.): ++
Growth ([7]; 18 h at 37° C.): +
Enz act. ([7]; 24 h at 37° C.): ++
Growth ([7]; 24 h at 37° C.): +
Enz act. ([8]; 18 h at 37° C.): ++
Growth ([8]; 18 h at 37° C.): ++
Enz act. ([8]; 24 h at 37° C.): ++
Growth ([8]; 24 h at 37° C.): ++
Enz act. ([9]; 18 h at 37° C.): ++
Growth ([9]; 18 h at 37° C.): ++
Enz act. ([9]; 24 h at 37° C.): ++
Growth ([9]; 24 h at 37° C.): ++
Enz act. ([10]; 18 h at 37° C.): ++
Growth ([10]; 18 h at 37° C.): ++
Enz act. ([10]; 24 h at 37° C.): ++
Growth ([10]; 24 h at 37° C.): ++
Enz act. ([11]; 18 h at 37° C.): ++
Growth ([11]; 18 h at 37° C.): ++
Enz act. ([11]; 24 h at 37° C.): ++
Growth ([11]; 24 h at 37° C.): ++
Enz act. ([12]; 18 h at 37° C.): ++
Growth ([12]; 18 h at 37° C.): ++
Enz act. ([12]; 24 h at 37° C.): ++
Growth ([12]; 24 h at 37° C.): ++
